From ChEMBL document CHEMBL3804772, “Enantioselective synthesis and antioxidant activity of 3,4,5-substituted piperidine derivatives” (Bioorg Med Chem Lett, 2016)

test: Antioxidant activity assessed as ABTS radical scavenging activity after 60 mins; assay type: physicochemical

SMILES | IC50 [µM]
Cc1ccc([C@H]2[C@H](CO)CN(Cc3ccccc3)C[C@H]2ON2C(C)(C)CCCC2(C)C)cc1 | 0.09
CC1(C)CCCC(C)(C)N1[O] | 0.026
O=c1c(O)c(-c2ccc(O)c(O)c2)oc2cc(O)cc(O)c12 [QUERCETIN] | 5.57
OC[C@@H]1CN(Cc2ccccc2)C[C@@H](O)[C@H]1c1ccccc1 | > 100
CCOC(=O)[C@@H]1C(=O)N(Cc2ccccc2)C[C@@H](O)[C@H]1c1ccccc1 | > 100
Cc1ccc([C@H]2[C@H](CO)CN(Cc3ccccc3)C[C@H]2O)cc1 | 85.3
CCOC(=O)[C@@H]1C(=O)N(Cc2ccccc2)C[C@@H](ON2C(C)(C)CCCC2(C)C)[C@H]1c1ccc(F)cc1 | 15.9

Second part, the compound after the results:

IC50 [µM] | SMILES
> 100 | CCOC(=O)[C@@H]1C(=O)N(Cc2ccccc2)C[C@@H](O)[C@H]1c1ccc(F)cc1
9.61 | OC[C@@H]1CN(Cc2ccccc2)C[C@@H](O)[C@H]1c1ccc(F)cc1
0.573 | CC(=O)OC[C@@H]1CN(Cc2ccccc2)C[C@@H](ON2C(C)(C)CCCC2(C)C)[C@H]1c1ccccc1
0.093 | CC1(C)CCCC(C)(C)N1O[C@@H]1CN(Cc2ccccc2)C[C@@H](CO)[C@@H]1c1ccccc1
0.095 | CC1(C)CCCC(C)(C)N1O[C@@H]1CN(Cc2ccccc2)C[C@@H](CO)[C@@H]1c1ccc(F)cc1
25.6 | O=C1O[C@H]([C@@H](O)CO)C(O)=C1O [ASCORBIC ACID]
98.4 | CCOC(=O)[C@@H]1C(=O)N(Cc2ccccc2)C[C@@H](ON2C(C)(C)CCCC2(C)C)[C@H]1c1ccc(C)cc1
> 100 | CCOC(=O)[C@@H]1C(=O)N(Cc2ccccc2)C[C@@H](O)[C@H]1c1ccc(C)cc1
> 100 | OC[C@@H]1CN(Cc2ccccc2)CC[C@H]1c1ccccc1
> 100 | CCOC(=O)[C@@H]1C(=O)N(Cc2ccccc2)CC[C@H]1c1ccccc1
12.2 | CCOC(=O)[C@@H]1C(=O)N(Cc2ccccc2)C[C@@H](ON2C(C)(C)CCCC2(C)C)[C@H]1c1ccccc1
